Measured values from patent US20240051971A1, “INTRACELLULAR ATP ENHANCER” (School Juridical Person Higashi-Nippon-Gakuen, priority 2020, published 2024).
Where two headings read alike, the source gives them in different places.

Key:
[1] = Test Example 2b, absorbability of solid dispersion containing Compound 14 in rats; format: in vivo, rats (Crl:CD (SD)); details: rat, single oral, 30 mg/kg as Compound 14, fasted
Experimental: A single dose of 10 mg/kg or 30 mg/kg, as Compound 14, of the solid dispersions of Reference Example 2b and Comparative Reference Example 10b and the sample of Comparative Reference Example 11b suspended in a 1% carboxymethylcellulose aqueous solution was orally administered to fasted male rats (8 weeks old, Crl:CD (SD), Japan Charles River Laboratories). A crystalline drug substance of Compound 14 was used as a control (Comparative Reference Example 12b). A collection time was 0.5, 1, 2, 4, 8, and 24 hours after administration, and about 300 μL of blood was collected at each time point from vena caudalis (n=3). The obtained blood was centrifuged at 1500×g, 4° C. for 15 minutes to obtain a plasma. The concentration of Compound 14 in the plasma was measured by HPLC (Shiseido Company, Limited and Hitachi High-Technologies Corporation). A time to reach the highest concentration in the plasma (Tmax), the highest concentration in the plasma (Cmax) and an area under the plasma concentration-time curve (AUC) were calculated from the change in the concentration in the obtained plasma. Here, values in the table are the mean value±standard deviation of three examples.

serum uric acid level [2] = experiment: Reference Example 14, action of lowering serum uric acid level in healthy adult males; format: in vivo; details: for maximum rate of decrease in a blood uric acid level: solid dispersion capsules of Formulation Example 1
Experimental: For comparative reference, the results are shown in FIG. 9 together with the result of a case described in Non Patent Literature 3 in which febuxostat (40 mg) was used.

plasma uric acid level = experiment: Reference Example 15, plasma uric acid in oxonic acid-induced hyperuricemic rats, 28-day repeated administration; format: in vivo, oxonic acid-induced hyperuricemic rats (Crl:CD (SD)); details: oral once a day for 28 days, non-fasting; Compound 14 0.3 mg/kg; Days 1, 7, 14, 21, 28
Experimental: Compound 14 suspended in a 1% aqueous methylcellulose solution was orally administered to oxonic acid-induced hyperuricemic rats at a dose of 0.3 mg/kg once a day for 28 days under non-fasting conditions. As a control, a 1% aqueous methylcellulose solution was used, and as a positive control, febuxostat was used.
As rats, male Crl:CD (SD) rats (produced by Charles River Laboratories Japan, Inc.) were used. The rats were purchased at the age of 6 weeks, and the administration was started at the age of 7 weeks.
Potassium oxonate was prepared by adding and suspending 10 g of potassium oxonate (Sigma-Aldrich Corp., Lot No. 03810 HD) to 200 mL of 1% methyl cellulose (1% MC) with a mixer. […]
The collection time points were set to before administration (1 hour before) and 2 and 6 hours after administration on Days 1, 7, 14, 21, and 28, and blood was collected in an amount of about 300 μL per time point from the tail vein (n=7). […] The concentration of uric acid in the plasma was measured by HPLC (Shiseido Co., Ltd., current OSAKA SODA).
To acquire the predose value and data for grouping, a 1% aqueous methylcellulose solution was orally administered to all rats 5 days before the start of administration, and the uric acid concentration in the plasma was measured according to the above-described method such as subcutaneous administration of potassium oxonate. […]

[3] = system: MOVAS-1 cells having XOR activity; experiment: Example 1, ATP enhancing action in hypoxic condition; format: cell-based; details: 1% oxygen, 4 hours
Experimental: MOVAS-1 cells having XOR activity were used for Examples. All examinations were performed at n=3 for each number of samples. The medium of MOVAS-1 cells in a confluent state (with D-MEM/low glucose/10% FBS/100 μM Oxionate) was divided into a medium for a hypoxanthine addition group and a medium for a hypoxanthine non-addition group, 50 μM hypoxanthine, and 6 μM Compound 14, 10 μM febuxostat, or 100 μM allopurinol were added to the medium of the hypoxanthine addition group, and 6 μM Compound 14, 10 μM febuxostat, or 100 μM allopurinol was added to the medium of the hypoxanthine non-addition group. For the control of each group, only 50 μM hypoxanthine was added to the hypoxanthine addition group, and nothing was added to the hypoxanthine non-addition group. Thereafter, the media were allowed to stand for 4 hours under mixed gas conditions of 1% oxygen, 5% carbon dioxide, and 94% nitrogen. After deproteinization by PCA, ATP, ADP and AMP concentrations were measured using HPLC.

[4] = system: MOVAS-1 cells having XOR activity; experiment: Example 2, ATP enhancing action in presence of uncoupler (CCCP); format: cell-based; details: 6 μM Compound 14, CCCP 10 μM, 30 minutes; versus control of the CCCP addition group
Experimental: MOVAS-1 cells having XOR activity were used for Examples. All examinations were performed at n=3 for each number of samples. The medium of MOVAS-1 cells in a confluent state (with D-MEM/low glucose/10% FBS/100 uM Oxionate) was divided into a medium for a CCCP addition group and a medium for a CCCP non-addition group, and 6 μM Compound 14 was added to the media. Nothing was added to the control of each group. Thereafter, to the CCCP addition group, CCCP was added so as to have a final concentration of 10 μM. After standing for 30 minutes, deproteinization was performed by PCA, and then ATP, ADP, and AMP concentrations were measured using HPLC.

RCS rats = experiment: Example 3, suppressive action on retinal degeneration; format: in vivo; details: oral once a day for 18 days, 1 mg/100 g body weight as Compound 14 (solid dispersion of Formulation Example 1); versus control, p<0.05, n=4
Experimental: (§1) Three week old RCS rats (CLEA Japan, Inc., male) were purchased and randomly divided into a control group and a Compound 14 administration group. From 3.5 weeks of age, control and Compound 14 were orally administered daily once a day for 18 days. To the control group, 1% methylcellulose (Metrose (SM-15) manufactured by Shin-Etsu Chemical Co., Ltd.) was administered, and to the Compound 14 administration group, a preparation in which a solid dispersion of Compound 14 described in “Formulation Example 1” described later was suspended in 1% methylcellulose was administered at a dose of 5 mg/100 g body weight (1 mg/100 g body weight as Compound 14) per administration. Because xanthine stones are likely to occur in rodents due to XOR inhibition, Uralyt-U combination powder (manufactured by Nippon Chemiphar Co., Ltd.) was administered to both groups in drinking water at a concentration of 1% (w/v) in order to prevent/reduce xanthine stones. On Day 19 after completion of administration for 18 days, eyeballs of both eyes were collected from both groups, and a tissue image was observed on one eyeball.

eyeball = experiment: Example 4, measurement of concentration of various molecules in eyeball; format: in vivo, RCS rats; parameters: unit not given here; details: Day 19 after 18 days oral administration
Experimental: as §1
Concentrations of various molecules in one eyeball collected in Example 3 were measured. The eyeball stored at −80° C. was freeze-pulverized, a 5% perchloric acid solution in an amount of 2 times (w/w) was added, and the mixture was vortexed. The supernatant obtained by centrifugation at 15000 rpm and 4° C. for 5 minutes was neutralized with a 3 M potassium carbonate solution. The mixture was centrifuged again at 15000 rpm and 4° C. for 5 minutes, and the supernatant was equilibrated with 0.5 M sodium phosphate buffer to prepare an eyeball extraction solution. ATP, ADP, AMP, IMP, inosine, hypoxanthine, xanthine, uric acid, GTP, GDP, and GMP in the solution were measured by HPLC (HPLC: Shimadzu Corporation LC-20AD, Diode array detector: Shimadzu Corporation SPD-M20A), and the energy charge was calculated (Calculation formula: ([ATP]+½ [ADP])/([ATP]+[ADP]+[AMP])).

serum = experiment: Example 5, concentration of hypoxanthine and inosine in serum; format: in vivo, RCS rats; details: Day 11 after 10 days daily oral administration
Experimental: In the same manner as in Example 3, to RCS rats, control or Compound 14 was orally administered daily for 10 days, and Uralyt-U combination powder (manufactured by Nippon Chemiphar Co., Ltd.) was administered in drinking water. On Day 11 after completion of administration for 10 days, blood was collected from both groups to prepare serum.

[5] = Distribution of administered Compound 14 in the eyeball; format: in vivo; details: Compound 14 administered to the rat
serum uric acid level [6] = details: febuxostat 40 mg, case described in Non Patent Literature 3; first day of the administration (about 15 hours after the administration); cited from earlier work

N#Cc1cc(-c2nc3c(O)ncnc3s2)ccc1Oc1ccccc1 [Comparative Reference Example 11b, 2-(3-Cyano-4-phenoxyphenyl)-7-hydroxythiazolo[5,4-d]pyrimidine]
AUClast [1]: 15369 ± 7776 ng·h/mL
Cmax [1]: 1724 ± 65 ng/mL

N#Cc1cc(-c2nc3c(O)ncnc3s2)ccc1Oc1ccccc1 [Comparative Reference Example 12b, 2-(3-Cyano-4-phenoxyphenyl)-7-hydroxythiazolo[5,4-d]pyrimidine]
AUClast [1]: 1157 ± 261 ng·h/mL
Cmax [1]: 239 ± 99 ng/mL
Tmax [1]: 4.7 ± 3.1 h

N#Cc1cc(-c2nc3c(O)ncnc3s2)ccc1Oc1ccccc1 [Compound 14, 2-(3-Cyano-4-phenoxyphenyl)-7-hydroxythiazolo[5,4-d]pyrimidine]
serum uric acid level over the administration period (serum uric acid level [2]; 40 mg once daily for 7 days, capsules containing micronized Compound 14): gradually decreased over time throughout the administration period
maximum rate of decrease in a blood uric acid level (serum uric acid level [2]; 80 mg once daily for 7 days, seventh day (about 8 hours after the administration)): about 30%
maximum rate of decrease in a blood uric acid level (serum uric acid level [2]; 80 mg once daily, first day of the administration (12 hours after the administration)): about 17%
rate of change of the plasma uric acid level AUC (−1) to 6 with respect to the control group (plasma uric acid level): increased with repeated administration
ATP enhancing action (ATP, ADP and AMP concentrations) ([3]; 6 μM Compound 14 versus 10 μM febuxostat or 100 μM allopurinol, with or without 50 μM hypoxanthine): exhibited effects at doses lower than febuxostat and allopurinol
ATP enhancing action in hypoxic condition, hypoxanthine in combination ([3]; 50 μM hypoxanthine, 6 μM Compound 14 versus 10 μM febuxostat): significant difference between Compound 14 and febuxostat
total adenylate concentration [4]: higher than the total adenylate concentration of the control group of the CCCP addition group
thinning of the outer nuclear layer and the cone-rod layer in the retinal tissue (RCS rats): significantly suppressed
GTP (eyeball; NS p = 0.069 vs control): 53.157 ± 8.352
Hypoxanthine (eyeball; NS p = 0.081 vs control): 8.450 ± 3.244
Xanthine (eyeball; NS p = 0.095 vs control): 1.739 ± 0.590
GMP (eyeball; p = 0. 000 vs control): 2.458 ± 1.898
IMP (eyeball; p = 0.002 vs control): 3.640 ± 1.122
ADP (eyeball; p = 0.004 vs control): 55.134 ± 7.253
AMP (eyeball; p = 0.010 vs control): 27.828 ± 8.547
Uric acid (eyeball; p = 0.027 vs control): 1.344 ± 0.444
ATP (eyeball; p = 0.033 vs control): 175.809 ± 25.506
GDP (eyeball; p = 0.036 vs control): 8.115 ± 1.245
Inosine (eyeball; p = 0.047 vs control): 13.063 ± 4.690
increase of the concentration of hypoxanthine in the serum versus control (serum): about 7 times
increase of the concentration of inosine in the serum versus control (serum): about 38 times
Hypoxanthine, Serum (n = 4) (serum; p = 0.023 vs control): 92.020 ± 47.670
Inosine, Serum (n = 4) (serum; p = 0.026 vs control): 9.950 ± 6.280
distribution in the eyeball [5]: hardly distributed in the eyeball

Cc1nc(-c2ccc(OCC(C)C)c(C#N)c2)sc1C(=O)O [febuxostat, reference compound]
rate of change of the plasma uric acid level AUC (−1) to 6 with respect to the control group (plasma uric acid level): no clear increase was observed
maximum rate of decrease in a blood uric acid level (serum uric acid level [6]): about 35%
